Data from patent publication US20260165323A1, “USE OF STROBILURIN TYPE COMPOUNDS FOR COMBATING PHYTOPATHOGENIC FUNGI CONTAINING AN AMINO ACID SUBSTITUTION F129L IN THE MITOCHONDRIAL CYTOCHROME B PROTEIN CONFERRING RESISTANCE TO QO […]” (priority 2022, published 2026).

Key:
Format in all cases: in vivo
[1] = test system: Phakopsora pachyrhizi containing the amino acid substitution F129L in the mitochondrial cytochrome b protein; assay: Use Example 1: protective control of soybean rust on soybeans (PHAKPA P2); details: inoculated 2 days after spraying, % diseased leaf area
How it was run: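 Protective test: plants were inoculated with the F129L cytochrome b rust strain 2 days after spraying to run-off, then held 24 h humid (~95% RH, 20-24° C) and up to 14 days at 23-27° C, 60-80% RH. Readout was visually assessed percent diseased leaf area.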

[2] = test system: Phakopsora pachyrhizi containing the amino acid substitution F129L in the mitochondrial cytochrome b protein; assay: Use Example 2: protective control of soybean rust on soybeans (PHAKPA P6); details: inoculated six days after spraying, % diseased leaf area
How it was run: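 Disease was rated visually as % diseased leaf area up to 14 days after inoculation (23–27°C, 60–80% RH). Inoculum was P. pachyrhizi carrying cytochrome b F129L, followed by 24 h in a humid chamber (~95% RH). Inoculation came six days after protective spraying of seedlings with compound in acetone/DMSO–Wettol–water.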

Puccinia recondita [3] = assay: Use Example 3: curative control of brown rust on wheat (PUCCRT K4); details: % diseased leaf area
How it was run: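 Wheat seedlings inoculated with Puccinia recondita spores, held 24 h at 95–99% RH, 20–24° C in dark, then 3 days in greenhouse before spraying to run-off (curative). Compound in acetone/DMSO–Wettol–water. After 5–7 further days at 20–24° C, 65–70% RH, % diseased leaf area scored visually.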

Puccinia recondita [4] = assay: Use Example 4: preventative control of brown rust on wheat (PUCCRT P7); details: inoculated seven days after spraying, % diseased leaf area
How it was run: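 Preventative test: Puccinia recondita spores dusted onto wheat seedlings seven days after spraying their first two leaves to run-off with the formulated compound. After 24 h humid dark incubation at 20–24 °C and 9–11 days of greenhouse growth at 65–70% RH, infection rated visually as % diseased leaf area.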

Row | Compound | % PHAKPA (F129L) Disease level P2 at 4 ppm [1] [%] | % PHAKPA (F129L) Disease level P2 at 16 ppm [1] [%] | % PHAKPA (F129L) Disease level P6 at 4 ppm [2] [%] | % PHAKPA (F129L) Disease level P6 at 16 ppm [2] [%] | % PUCCRT Disease level K4 at 4 ppm (Puccinia recondita [3]) [%] | % PUCCRT Disease level K4 at 16 ppm (Puccinia recondita [3]) [%] | % PUCCRT Disease level P7 at 4 ppm (Puccinia recondita [4]) [%] | % PUCCRT Disease level P7 at 16 ppm (Puccinia recondita [4]) [%]
1 | CNC(=O)/C(=N/OC)c1cccc(Cl)c1CO/N=C(\COC)c1cccc(OC)c1 [compound 119] | 32 | 0 | 36 | 5 | 42 | 2 | 13 | 1
2 | CCOC/C(=N\OCc1c(Cl)cccc1/C(=N\OC)C(=O)OC)c1cccc(Cl)c1 [compound 33] | 93 | 67 | 75 | 72 | 73 | 73 | 65 | 35
3 | COC/C(=N\OCc1c(Cl)cccc1/C(=N\OC)C(=O)OC)c1cccc(F)c1 [compound 25] | 82 | 23 | 90 | 58 | 83 | 78 | 35 | 5
4 | CCOC/C(=N\OCc1c(Cl)cccc1/C(=N\OC)C(=O)OC)c1ccc(Cl)cc1 [compound 44] | 95 | 55 | 80 | 68 | 75 | 73 | 77 | 37
5 | CNC(=O)/C(=N/OC)c1cccc(Cl)c1CO/N=C(\COC)c1ccc(F)c(F)c1 [compound 97] | 3 | 0 | 17 | 1 | 9 | 3 | 23 | 4
6 | CCOC/C(=N\OCc1c(Cl)cccc1/C(=N\OC)C(=O)NC)c1cccc(Cl)c1 [compound 40] | 15 | 1 | 33 | 4 | 73 | 40 | 30 | 4
7 | CO/C=C(/C(=O)OC)c1cccc(Br)c1CO/N=C(\COC)c1ccccc1 [compound 59] | 0 | 0 | 1 | 0 | 11 | 0 | 22 | 0
8 | CNC(=O)/C(=N/OC)c1cccc(Cl)c1CO/N=C(\COC)c1ccc(Cl)c(Cl)c1 [compound 69] | 43 | 7 | 15 | 1 | 33 | 3 | 7 | 3
9 | CO/C=C(/C(=O)OC)c1cccc(Cl)c1CO/N=C(\COC)c1ccccc1 [compound 11, Methyl-(E)-2-[3-chloro-2-[[(Z)-(2-methoxy-1-phenyl-ethylidene)amino]oxymethyl]phenyl]-3-methoxy-prop-2-enoate] | 2 | 0 | 11 | 0 | 7 | 0 | 25 | 1
10 | CO/C=C(/C(=O)OC)c1cccc(Cl)c1CO/N=C(\COC)c1ccc(Cl)cc1F [compound 106] | 14 | 1 | 8 | 1 | 28 | 4 | 19 | 2
11 | CO/C=C(/C(=O)OC)c1cccc(Cl)c1CO/N=C(/C#Cc1ccc(F)cc1)COC [compound 7, Methyl (E)-2-[3-chloro-2-[[(Z)-[3-(4-fluorophenyl)-1-(methoxymethyl)prop-2-ynylidene]amino]oxymethyl]phenyl]-3-methoxy-prop-2-enoate] | 2 | 0 | 11 | 0 | 70 | 50 | 35 | 4
12 | CCOC/C(=N\OCc1c(Cl)cccc1/C(=N\OC)C(=O)OC)c1ccccc1 [compound 53] | 88 | 57 | 93 | 80 | 83 | 78 | 87 | 78
13 | CCOC/C(=N\OCc1c(Cl)cccc1/C(=N\OC)C(=O)NC)c1c(F)cc(F)cc1F [compound 32] | 12 | 0 | 33 | 1 | 77 | 57 | 53 | 30
14 | CO/C=C(/C(=O)OC)c1cccc(Cl)c1CO/N=C(\COC)c1cccc(F)c1F [compound 87] | 5 | 0 | 2 | 0 | 67 | 10 | 28 | 5
15 | CCOC/C(=N\OCc1c(Cl)cccc1/C(=C\OC)C(=O)OC)c1cccc(F)c1 [compound 27] | 5 | 0 | 17 | 1 | 57 | 12 | 40 | 7
16 | CO/C=C(/C(=O)OC)c1cccc(Cl)c1CO/N=C(\COC)c1cc(F)cc(F)c1 [compound 80] | 5 | 0 | 0 | 0 | 30 | 0 | 5 | 3
